Experimental data taken from US8653087B2, “Pyrido [5, 4-D] pyrimidines as cell proliferation inhibitors” (Boehringer Ingelheim International GmbH, priority 2008, dated 2014).

Target: B-Raf (V600E)-kinase (Homo sapiens (Human), UniProt P15056, V600E)
Assay: Kinase test B-RAF (V600E)
Format: biochemical
Settings: B-RAF (V600E) kinase test, 250 μM ATP
Procedure, shortened: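 B-Raf (V600E) (0.5 ng) preincubated with compound 24 h at RT (5% DMSO), then reacted 60 min at RT with 250 μM ATP and biotinylated MEK1 as substrate. Phospho-MEK (Ser217/221) captured on streptavidin and detected by europium time-resolved fluorescence; IC50 from dose-response curves.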

Sequence of B-Raf (V600E)-kinase (P15056 whole entry V600E): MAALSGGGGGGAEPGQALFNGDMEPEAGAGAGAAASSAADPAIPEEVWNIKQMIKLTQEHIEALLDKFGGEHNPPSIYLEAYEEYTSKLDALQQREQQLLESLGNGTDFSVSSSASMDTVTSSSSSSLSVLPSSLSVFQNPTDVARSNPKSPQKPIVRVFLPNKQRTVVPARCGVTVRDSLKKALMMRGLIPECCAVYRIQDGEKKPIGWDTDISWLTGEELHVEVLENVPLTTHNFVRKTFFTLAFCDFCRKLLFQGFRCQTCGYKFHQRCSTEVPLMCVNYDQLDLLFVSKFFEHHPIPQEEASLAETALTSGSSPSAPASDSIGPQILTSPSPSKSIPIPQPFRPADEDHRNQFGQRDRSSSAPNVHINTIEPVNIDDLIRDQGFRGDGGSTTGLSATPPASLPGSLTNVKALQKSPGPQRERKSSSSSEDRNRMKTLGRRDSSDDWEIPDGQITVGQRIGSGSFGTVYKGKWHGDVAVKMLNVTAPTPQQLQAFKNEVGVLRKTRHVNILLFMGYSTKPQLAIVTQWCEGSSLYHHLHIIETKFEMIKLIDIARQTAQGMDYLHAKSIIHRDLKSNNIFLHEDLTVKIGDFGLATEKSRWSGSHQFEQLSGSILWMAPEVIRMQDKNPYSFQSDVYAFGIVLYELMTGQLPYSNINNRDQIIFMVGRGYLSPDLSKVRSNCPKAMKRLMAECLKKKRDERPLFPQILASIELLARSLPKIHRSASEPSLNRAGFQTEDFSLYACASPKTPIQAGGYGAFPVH

Cc1cc(C(=O)Nc2cc(C(C)(C)C)nn2C)cc(Nc2ncnc3cnc(N4CCN(C)CC4)nc23)c1C [III-373]
IC50: 8 nM

Cn1nc(C(C)(C)C)cc1NC(=O)c1cc(Cl)cc(Nc2ncnc3cnc(N4CCCC4)nc23)c1Cl [III-374]
IC50: 2000 nM

Cn1nc(C(C)(C)C)cc1NC(=O)c1cc(Cl)cc(Nc2ncnc3cnc(N4CCOCC4)nc23)c1Cl [III-375]
IC50: 2000 nM

Cn1nc(C(C)(C)C)cc1NC(=O)c1cc(Cl)cc(Nc2ncnc3cnc(N4CCOCC4)nc23)c1 [III-376]
IC50: 7 nM

Cn1nc(C(C)(C)C)cc1NC(=O)c1cc(Cl)cc(Nc2ncnc3cnc(N4CCCC4)nc23)c1 [III-377]
IC50: 4 nM

CN1CCN(c2ncc3ncnc(Nc4cc(Cl)cc(C(=O)Nc5cc(C(C)(C)C)nn5C)c4)c3n2)CC1 [III-378]
IC50: 8 nM

CN(C)C1CCN(c2ncc3ncnc(Nc4cc(Cl)cc(C(=O)Nc5cc(C(C)(C)C)nn5C)c4)c3n2)C1 (centres unmarked) [III-379]
IC50: 6 nM

O=C(NC1CCOC1)c1ccc(F)c(Nc2ncnc3cnc(NC4CCOC4)nc23)c1 (centres unmarked) [III-380]
IC50: 1400 nM

CC(C)(C)c1cc(NC(=O)c2ccc(F)c(Nc3ncnc4cnc(NC5CCOC5)nc34)c2)no1 (centres unmarked) [III-381]
IC50: 3 nM

CN1CCN(c2cc(NC(=O)c3ccc(F)c(Nc4ncnc5cnc(N6CCOCC6)nc45)c3)cc(C(F)(F)F)c2)CC1 [III-382]
IC50: < 1 nM

CC(C)(C#N)c1cccc(NC(=O)c2ccc(F)c(Nc3ncnc4cnc(N5CCOCC5)nc34)c2)c1 [III-383]
IC50: 4 nM

Cn1nc(C(C)(C)C)cc1NC(=O)c1ccc(F)c(Nc2ncnc3cnc(N4CCOCC4)nc23)c1 [III-384]
IC50: 2 nM

CN1CCN(c2cc(NC(=O)c3ccc(F)c(Nc4ncnc5cnc(N6CCOCC6)nc45)c3)cc(C(F)(F)F)c2F)CC1 [III-385]
IC50: 2 nM

CC(C)(C#N)c1cccc(NC(=O)c2ccc(F)c(Nc3ncnc4cnc(NC5CCOC5)nc34)c2)c1 (centres unmarked) [III-386]
IC50: 1 nM

Cn1nc(C(C)(C)C)cc1NC(=O)c1ccc(F)c(Nc2ncnc3cnc(NC4CCOC4)nc23)c1 (centres unmarked) [III-387]
IC50: 2 nM

CN1CCN(c2cc(NC(=O)c3ccc(F)c(Nc4ncnc5cnc(NC6CCOC6)nc45)c3)cc(C(F)(F)F)c2)CC1 (centres unmarked) [III-388]
IC50: < 1 nM

CN1CCN(c2cc(NC(=O)c3ccc(F)c(Nc4ncnc5cnc(NC6CCOC6)nc45)c3)cc(C(F)(F)F)c2F)CC1 (centres unmarked) [III-389]
IC50: < 1 nM

COc1ccc(NC(=O)c2ccc(F)c(Nc3ncnc4cnc(NC5CCOC5)nc34)c2)cc1C(F)(F)F (centres unmarked) [III-390]
IC50: < 1 nM

CC(C)(C)c1cc(NC(=O)c2ccc(F)c(Nc3ncnc4cnc(N5CCOCC5)nc34)c2)[nH]n1 [III-391]
IC50: 1 nM

CC(C)(C)c1cc(NC(=O)c2ccc(F)c(Nc3ncnc4cnc(NC5CCOC5)nc34)c2)[nH]n1 (centres unmarked) [III-392]
IC50: 3 nM

O=C(Nc1cc(C(F)(F)F)ccn1)c1ccc(F)c(Nc2ncnc3cnc(N4CCOCC4)nc23)c1 [III-393]
IC50: 1 nM

CN1CCC(CN2CCN(c3ncc4ncnc(Nc5cc(C(=O)Nc6cc(C(C)(C)C)on6)ccc5F)c4n3)CC2)CC1 [III-394]
IC50: 1 nM

COCCN1CCN(c2ncc3ncnc(Nc4cc(C(=O)Nc5cc(C(C)(C)C)on5)ccc4F)c3n2)CC1 [III-395]
IC50: 4 nM

CC(C)N1CCN(c2ncc3ncnc(Nc4cc(C(=O)Nc5cc(C(C)(C)C)on5)ccc4F)c3n2)CC1 [III-396]
IC50: 3 nM

CC(C)(C)c1cc(NC(=O)c2ccc(F)c(Nc3ncnc4cnc(N5CCN(CC6CC6)CC5)nc34)c2)no1 [III-397]
IC50: 4 nM

CCN1CCN(c2ncc3ncnc(Nc4cc(C(=O)Nc5cc(C(C)(C)C)on5)ccc4F)c3n2)CC1 [III-398]
IC50: 1 nM

CN(C)C1CCN(c2ncc3ncnc(Nc4cc(C(=O)Nc5cc(C(C)(C)C)on5)ccc4F)c3n2)C1 (centres unmarked) [III-399]
IC50: 2 nM

CN1CCC(N(C)c2ncc3ncnc(Nc4cc(C(=O)Nc5cc(C(C)(C)C)on5)ccc4F)c3n2)C1 (centres unmarked) [III-400]
IC50: 4 nM

CN(C)C1CCN(c2ncc3ncnc(Nc4cc(C(=O)Nc5cc(C(C)(C)C)on5)ccc4F)c3n2)CC1 [III-401]
IC50: 3 nM
